5 molecules from patent EP2316926B1, “Enantioselective production of alpha-hydroxy carbonyl compounds” (priority 2009, dated 2011) can be followed below.

Data set [1] concerns the target T1, Gox0644 (Gluconobacter oxydans, UniProt Q5FT75). In words: Coupled-enzyme biotransformation with cofactor regeneration, product determined by NMR (regio- and stereoselectivity). In kind it is biochemical. On the procedure: (§1) Measurement of enzyme activity: NADPH-dependent α-ketocarbonyl reductases were assayed by a routine method used for NAD(P)-linked enzymes by recording the rate of decrease of NADPH at 340 nm (ε = 6.22 mM^-1 x cm^-1)) with substrates at 30 °C. The reaction mixture (1 ml) for reduction of α-ketocarbonyl substrates contained 10 mM substrate, 40 mM potassium phosphate buffer pH 7.0, 0.025 mM NAD(P)H and the enzyme. Reactions were induced by addition of enzyme or substrate. One unit was defined as the amount of enzyme activity catalyzing the conversion of 1 µmol of pyridine nucleotide per min at 30 °C. NMR Analysis of Biotransformation Products: Biotransformations were extracted with equal volumes of CDCl3. and ^13C NMR spectra were recorded on a Bruker Avance 300 DPX spectrometer operating at 300 MHz for ^1H NMR and at 75 MHz for ^13C NMR, respectively. Spectra were processed using Bruker TonSpin 1.3 for Windows software and calibrated to the residual solvent peak of CDCl3 (δH = 7.26 / δC = 77.0).
Determination of the absolute configuration of the biotransformation product 2-hydroxy-pentan-3-one using chiral NMR shift solvents: Chiral NMR shift reagent (R,R)- and (S,S)-bis-α-methylbenzylamine-para-methyl (BMBA-p-Me) was prepared with small modifications according to the method reported by Kobayashi, Y et al., Tetrahedron Lett. 44: 7489-7491 (2003). In brief, the method of Marshall, J.A. and Mikowski, A. M., Org. Lett. 8:4375-4378 (2006) was used to synthesize 1,3-dibromo-2-methylpropane from 1,3-dihydroxy-2-methylpropane. Diisopropylethylamine (25.5 g), triphenylphosphine (20.1 g) and CBr4 (25.5 g) were sequentially added to a stirring solution of […] in 100 ml CH2Cl2 at 0 °C. The reaction was stirred for 3-4 h at 0 °C and concentrated under reduced pressure to give a green-brown oil. The oil was dissolved in diethyl ether and water (100 ml each) and the aqueous layer was extracted three times with diethyl ether. The organic extracts were combined and washed with water and brine, and dried over MgSO4. The reaction was concentrated under reduced pressure and applied to flash chromatography on silica 60 (230-400 mesh, 100% cyclohexane). Fractions containing the 1,3-dibromo-2-methylpropane product were combined (as judged by Si-TLC [100% cyclohexene]) and concentrated under reduced pressure resulting in a brown-yellow oil. The dibromopropane oil was used for the synthesis of (R,R)- and (S,S)-BMBA-p-Me as described by (Kobayashi, Y. et al., Org. Lett. 4(3):411-414 (2002). The crude oil was distilled by Kugelrohr at 240 °C to give crude BMPA-p-Me (yellow oil). BMBA-p-Me was purified by HPLC using a C18 column (Waters Xterra, 250 x 4.6 mm) at a flow rate of 0.8 ml min^-1 and a 40 min linear gradient of 50-100 % MeOH at ambient temperature. Fractions were concentrated under reduced pressure and BMBA-p-Me was identified by ^1H-NMR (colorless hygroscopic oil).
Approximately 7.5 mg of the extracted product 2-hydroxy-pentan-3-one was added to 15 mg (R,R)- or (S,S)-BMBA-p-Me (dissolved in 200-300 µl CDCl3) and analyzed by ^13C NMR with the readout adjusted to 0.001 ppm/point (sw = 239 ppm, td = 512k) (Fiorentino, A. et al., Tetrahedron., 62:8952-8958 (2006)). The absolute configuration was determined based on the sign of ΔδRR-SS (δ(R,R)-BMBA-p-Me - δ(S,S)-BMBA-p-Me) for the α-carbons adjacent to the hydroxymethine unit as formulated in the following model shown in Scheme 3 (valid for saturated secondary alcohols of acyclic and cyclic compounds): [drawing 7]
Cofactor regeneration: A prerequisite for the production of α-hydroxycarbonyl compounds is the regeneration of the expensive coenzymes and the stability of the protein catalysts. By coupling two coenzyme-dependent enzyme reactions, NADPH can be continuously regenerated. […]

Data set [2] deals with T2, Gox1615 (Gluconobacter oxydans, UniProt Q5FQJ0).
T2 sequence (Q5FQJ0 1-332): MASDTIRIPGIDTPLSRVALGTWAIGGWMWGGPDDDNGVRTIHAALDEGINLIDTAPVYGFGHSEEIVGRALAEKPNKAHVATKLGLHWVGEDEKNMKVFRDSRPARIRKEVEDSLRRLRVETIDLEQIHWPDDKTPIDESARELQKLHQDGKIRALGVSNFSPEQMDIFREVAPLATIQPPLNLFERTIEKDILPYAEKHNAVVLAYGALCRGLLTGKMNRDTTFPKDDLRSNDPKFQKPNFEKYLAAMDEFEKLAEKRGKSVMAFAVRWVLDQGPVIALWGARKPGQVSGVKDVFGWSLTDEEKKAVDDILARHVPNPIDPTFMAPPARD
As to the kind of experiment: NADPH-dependent α-ketocarbonyl reductase activity assay (rate of decrease of NADPH at 340 nm). In kind it is biochemical. As to conditions: for Gox1615 U/mg*: Table 3, 10 mM substrate, 40 mM K-phosphate buffer pH 7.0, 0.05 mM NAD(P)H, 30 °C, U/mg = µmol x min^-1 x mg protein^-1; for Specific Activity (U/mg)*: Table 5, cofactor NADPH, U/mg = µmol/mg·min. On the procedure: as §1
NADPH-dependent α-ketocarbonyl reductases were assayed by a routine method used for NAD(P)-linked enzymes by recording the rate of decrease of NADPH at 340 nm (ε = 6.22 mM^-1.cm^-1) with substrates at 30 °C. The reaction mixture (1 ml) for reduction of α-ketocarbonyl substrates contained 10 mM substrate, 40 mM potassium phosphate buffer pH 7.0, 0.025 mM NADPH, and the enzyme. Reactions were induced by addition of enzyme or substrate. One unit of activity was defined as the amount of enzyme activity catalyzing the conversion of 1 µmol of pyridine nucleotide per min at 30 °C.
Purified NAD(P)-dependent oxidoreductases were assayed at 30 °C by a routine method used for NAD(P)-linked enzymes by recording the rate of decrease of NAD(P)H at 340 nm (ε = 6.22 mM^-1˙cm^-1) with substrates capable of reduction reactions. The standard reaction mixture (1 ml) for the reduction reactions of substrates contained 10 mM substrate, 40 mM potassium phosphate buffer (K-phosphate buffer) pH 7.0, 0.05 mM NAD(P)H, and the enzyme unless otherwise noted. Reactions were induced by addition of enzyme or substrate. One unit of activity was defined as the amount of enzyme activity catalyzing the conversion of 1 µmol of pyridine nucleotide per min at 30 °C. Measurement of the protein content was performed by the method of Bradford (Bradford M.M., Anal. Biochem. 72:248-254 (1976)). Table 3: Enzymatic activities with α-diketones, α-ketoaldehydes and α-ketoesters

Data set [3] has as its target T1, Gox0644. Described as above. It is filed as biochemical. As to conditions: for Gox0644 U/mg*: Table 3, 10 mM substrate, 40 mM K-phosphate buffer pH 7.0, 0.05 mM NAD(P)H, 30 °C, U/mg = µmol x min^-1 x mg protein^-1. How it is done:
Reactions were induced by addition of enzyme or substrate. One unit was defined as the amount of enzyme activity catalyzing the conversion of 1 µmol of pyridine nucleotide per min at 30 °C. NMR Analysis of Biotransformation Products: Biotransformations were extracted with equal volumes of CDCl3. and ^13C NMR spectra were recorded on a Bruker Avance 300 DPX spectrometer operating at 300 MHz for ^1H NMR and at 75 MHz for ^13C NMR, respectively.
Reactions were induced by addition of enzyme or substrate. One unit of activity was defined as the amount of enzyme activity catalyzing the conversion of 1 µmol of pyridine nucleotide per min at 30 °C.
The standard reaction mixture (1 ml) for the reduction reactions of substrates contained 10 mM substrate, 40 mM potassium phosphate buffer (K-phosphate buffer) pH 7.0, 0.05 mM NAD(P)H, and the enzyme unless otherwise noted. Reactions were induced by addition of enzyme or substrate. One unit of activity was defined as the amount of enzyme activity catalyzing the conversion of 1 µmol of pyridine nucleotide per min at 30 °C. […] Table 3: Enzymatic activities with α-diketones, α-ketoaldehydes and α-ketoesters

The target in data set [4] is T2, Gox1615. As to the kind of experiment: Kinetic constants from purified enzyme by Lineweaver-Burk plots. In kind it is biochemical. How it is done:
(§2) Determination of pH and temperature optima and enzyme kinetics: The optimum pH for enzyme activities was determined by a modified method of Salusjärvi, T. et al., Appl. Microbiol. Biotechnol. 65:306-314 (2004) using the following buffer system (50 mM final concentration each): sodium acetate pH 4.5 - 6.5, potassium phosphate pH 6.5 - 8.0, Tris-HCl pH 8.0 - 10. Temperature optima for the biocatalysts were determined under standard reaction conditions at temperatures ranging from 20 - 80 °C. The Michaelis constant (Km) for the proteins was determined from purified enzyme by Lineweaver-Burk plots. Assays were performed at optimum pH for each enzyme and at 30 °C using the best substrate and a targeted substrate. The Km for each substrate was calculated using concentrations of 0.0025 to 10 mM, and the Km NAD(P)H and NAD(P) was calculated using concentrations of 0.01 to 0.5 mM
(§3) 2.9 Kinetic parameters of the keto carbonyl reductases: Kinetic constants were determined from purified enzyme by Lineweaver-Burk plots. The Km and Vmax values for the substrates were calculated using concentrations of 0.025 to 10 mM. The optimal pH values and temperatures for enzyme activities are also shown in Tab. 8. Table 8: Summary of kinetic parameters

For data set [5], the target named is T1, Gox0644. The data set is described as above. In kind it is biochemical. How it is done:
as §2, §3

The next data set deals with CCC(=O)C(C)=O. The description is as above. In kind it is biochemical, Gluconobacter oxydans. The following applies: other: 40 mM KPB at optimal pH and 30 °C, substrate 0.025 to 10 mM. How it is done:
as §2, §3

A further data set has as its system O=CC(=O)c1ccccc1. The data set is described as above. It is filed as biochemical, Gluconobacter oxydans. As to conditions: other: 40 mM KPB at optimal pH and 30 °C, substrate 0.025 to 10 mM. How it is done:
as §2, §3

Substrate in data set [6]: CCCC(=O)C(C)=O
The description is as above. It is filed as biochemical, Gluconobacter oxydans. The following applies: other: 40 mM KPB at optimal pH and 30 °C, substrate 0.025 to 10 mM. On the procedure:
as §2, §3

Substrate in data set [7]: O=CC(=O)c1ccccc1
The description is as above. In kind it is biochemical, Gluconobacter oxydans. The following applies: other: 40 mM KPB at optimal pH and 30 °C, substrate 0.025 to 10 mM. On the procedure: as §2, §3
The source holds these as a separate data set.

Substrate in data set [8]: CCC(=O)C(C)=O
The description is as above. In kind it is biochemical, Gluconobacter oxydans. As to conditions: other: 40 mM KPB at optimal pH and 30 °C, substrate 0.025 to 10 mM. How it is done:
as §2, §3
The source holds these as a separate data set.

Substrate in data set [9]: CC(=O)C=O
The data set is described as above. It is filed as biochemical, Gluconobacter oxydans. The following applies: other: 40 mM KPB at optimal pH and 30 °C, substrate 0.025 to 10 mM. How it is done: as §2, §3

The Km is the substrate concentration at which the rate is half of its maximum.

Values joined by “and” are separate entries in the source; they are usually repeats but may differ in a detail not shown here. Equal values may be shown once.

With `CC(=O)C(=O)c1ccccc1` [1-phenyl-1,2-propanedione], the “Product (stereoselective reduction)” value at Gox0644 [1] (NMR with chiral solvent BMBA-p-Me) is given as 1-phenyl-2R-hydroxy-propanone. Also, the “Product (regioselective reduction)” value on Gox0644 [1] (determined by NMR analysis) was 1-phenyl-2-hydroxy-propanone and 1-phenyl-2-hydroxy-1-propanone. At Gox1615 [2], the “Gox1615 U/mg*” value amounted to 5.4 U/mg and the “Specific Activity (U/mg)*” value amounted to 5.4 U/mg. In addition, on Gox0644 [3], the “Gox0644 U/mg*” value was found to be 75.4 U/mg. On Gox0644 [3] (substrates showing the highest activities), this molecule showed an activity of 75 U/mg protein.
`CC(=O)C=O` [methylglyoxal]: at Gox1615 [2], the “Gox1615 U/mg*” value stood at 23.0 U/mg and the “Specific Activity (U/mg)*” value came out at 23.0 U/mg. In addition, the Vmax at Gox1615 [4] was found to be 23 U/mg protein. Besides, the “Gox0644 U/mg*” value at Gox0644 [3] is 3.4 U/mg.
As for `O=CC(=O)c1ccccc1` [phenylglyoxal], at Gox1615 [2], the “Gox1615 U/mg*” value turned out to be 19.1 U/mg and the “Specific Activity (U/mg)*” value was 19.1 U/mg. On Gox0644 [5], the Vmax is 75 U/mg protein. For the same molecule, on Gox0644 [3], the “Gox0644 U/mg*” value was 74.7 U/mg.
For Gox0644 (Gluconobacter oxydans 621H), in the data set on CCC(=O)C(C)=O, the Km was 5.7 mM and the Vmax came to 69.6 µmol/min x mg. In the data set on O=CC(=O)c1ccccc1, the Km is recorded as 4.8 mM and the Vmax is reported as 74.7 µmol/min x mg.

B1: Gox1615 (Gluconobacter oxydans 621H) (protein)
chain: T2 sequence (Q5FQJ0 1-332)
Regarding B1, the Km in [6] was 4.0 mM; in data set [7], 4.3 mM; in [8] it was 4.0 mM; in data set [9], 4.3 mM. Further, the Vmax in [6] is reported as 7.0 U/mg protein; in [7], 23 U/mg protein; in data set [8], 7.0 µmol/min x mg; in data set [9], 23.0 µmol/min x mg.
